Test results reported in patent US20060062832A1, “Sanitizing wipes with microbicidal properties cross-reference to related applications” (priority 2004, published 2006).

Experiments:
Type in all cases: cell-based
[1] = test system: Escherichia coli ATCC 11229; assay: A.O.A.C. sanitizer and germicidal detergent test; details: compositions at listed % w/v; hypochlorite 50 ppm; sanitizer criterion 99.999% in 30 s
Excerpt: (§1) The bacterial cultures were purchased from the American Type Culture Collection (ATCC), (Bethesda, Md.). Escherichia coli and Staphylococcus aureus are used to represent both gram negative and gram-positive bacterial classes. This test is used by the US EPA for to determine compliance for a product to be used as a sanitizing agent. A product that reduces population density of both types of bacteria in 30 s by 99.999% satisfies the requirement as a sanitizing agent.

[2] = test system: Staphylococcus aureus ATCC 6538; assay: A.O.A.C. sanitizer and germicidal detergent test; details: compositions at listed % w/v; hypochlorite 50 ppm; sanitizer criterion 99.999% in 30 s
Excerpt: as §1

[3] = test system: Aeromonas hydrophila ATCC 7965; assay: modified detergent and germicidal sanitizer test of the A.O.A.C.; details: A.h. 7965
Protocol: (§2) The […], Listeria monocytogenes, Aeromonas hydrophila, and Pseudomonas aeruginosa essentially by the modified detergent and germicidal sanitizer test of the A.O.A.C. The sanitizers were tested against both natural isolates and the antibiotic resistant strains of Listeria monocytogenes and Salmonella typhimurium. Each of the antibiotic resistant strains was used separately as well as in a composite strain prepared by mixing equal numbers of five different antibiotic resistant strains of Listeria monocytogenes or those of Salmonella typhimurium, respectively.

[4] = test system: Listeria monocytogenes ATCC 7644; assay: as above; details: L.m. 7644
Protocol: as §2

[5] = test system: Pseudomonas aeruginosa ATCC 10145; assay: as above; details: P.a. 10145
Protocol: (§3) The efficacy of the sanitizers of Examples I-III were further evaluated with 50 ppm of hypochlorite as a control against Salmonella typhimurium, Listeria monocytogenes, Aeromonas hydrophila, and Pseudomonas aeruginosa essentially by the modified detergent and germicidal sanitizer test of the A.O.A.C. The sanitizers were tested against both natural isolates and the antibiotic resistant strains of Listeria monocytogenes and Salmonella typhimurium. Each of the antibiotic resistant strains was used separately as well as in a composite strain prepared by mixing equal numbers of five different antibiotic resistant strains of Listeria monocytogenes or those of Salmonella typhimurium, respectively.

[6] = test system: Salmonella typhimurium ATCC 7823; assay: as above; design: key to Number of surviving bacteria/ml after 30 seconds: Too Numerous To Count; details: S.t. 7823
Protocol: as §3

[7] = 30 seconds contact, HOCL = 200 ppm (mark on the cfu cell beside)

## OCl [Hypochlorite]
[1]
  % Kill E. coli: >99.999%
[2]
  % Kill Staph. aureus: >99.999%
[3]; [7]
  % Kill after 30 seconds: >99.999%
[3]; 60 seconds contact
  % Kill after 60 seconds: >99.999%
[4]; [7]
  % Kill after 30 seconds: >99.999%
[4]; 60 seconds contact
  % Kill after 60 seconds: >99.999%
[5]; 30 seconds contact
  % Kill after 30 seconds: >99.999%
[5]; 60 seconds contact
  % Kill after 60 seconds: >99.999%
[6]; 30 seconds contact, HOCL = 50 ppm
  Number of surviving bacteria/ml after 30 seconds: T@, T@
[6]; 30 seconds contact, HOCL = 50 ppm (mark on the cfu cell beside)
  % Kill after 30 seconds: <99.999%
[6]; 60 seconds contact
  % Kill after 60 seconds: >99.999%
